Structures are written as SMILES. In brackets after ≈: the same amount, converted by molar mass. Read-outs that look alike come from different tables or passages of the source.

The target in data set [1] is T1, TRPV1 expressed in rat spinal cord (Rattus norvegicus, UniProt O35433).
T1 construct: the spinal cord was removed and disrupted using a Polytron tissue homogenizer; from tissue; host or cells: rat spinal cord membranes
Nature of the data set: Radioligand binding assay ([3H]-RTX, spinal cord membranes). The procedure: Male Sprague-Dawley rats with body weight between 250 to 350 g at the time for testing were used. For binding assays rats were sacrificed by decapitation under anesthesia and the spinal cord was removed and disrupted using a Polytron tissue homogenizer in ice cold buffer containing 5 mM KCl, 5.8 mM NaCl, 0.75 mM CaCl2, 2 mM MgCl2, 320 mM sucrose, 10 mM Hepes, pH 8.6.^5 The homogenized tissue was centrifuged at 1000 x g for 10 min at 4°C and the supernatant was centrifuged again at 35000 x g for 30 min at 4°C (Beckman Avanti J25). The pellet was resuspended in the same buffer as described above and used in binding experiments. In saturation experiments, 150 µg protein/sample from membrane suspensions were incubated with [^3H]-Resiniferatoxin ([^3H]-RTX) (0.003-3 nM) in the assay buffer containing 0.25 mg/ml fatty acid-free bovine serum albumin at 37°C for 60 min. In competition experiments, the membranes were incubated at 37°C for 60 min with [^3H]RTX (0.4 nM) and with increasing concentrations (from 0.1 nM to 3 µM) of examined compounds.
Non specific binding was evaluated in the presence of 1 µM RTX. After incubation the reaction mixture was cooled at 0°C and incubated with bovine α1-acid glycoprotein (200 µg per tube) for 15 min to reduce non-specific RTX binding. Membrane-bound RTX was separated from free RTX by centrifuging the samples at 18500 x g for 15 min. The tip of the microcentrifuge tube containing the pellet was cut off and the radioactivity was determined by scintillation counting (Packard 2500 TR). Protein concentration was determined according to a Bio-Rad method with bovine serum albumin as a standard reference (Bradford, 1976). Saturation and competition studies were analyzed with the Ligand program.

In data set [2] the target is T2, TRPV1 expressing neurons (Rattus norvegicus, UniProt O35433).
T2 construct: Adult rats were terminally anaesthetized and decapitated; Dorsal root ganglia were removed; endogenous in cells; host or cells: primary cultured adult rat dorsal root ganglia neurons
Nature of the data set: Ca2+ fluorescence measurements in cultured dorsal root ganglia neurones. The data set is classed as cell-based. As to the method:
Adult rats were terminally anaesthetized and decapitated. […] The ganglia, placed in cold DMEM supplemented with 10% fetal bovine serum, 2 mM L-glutamine, 100 U/ml penicillin and 100 µg/ml streptomycin, were dissociated in single cells by several passages through a series of syringe needles (23G down to 25G). The medium and the ganglia were filtered to remove debris, topped up with 8 ml of DMEM medium and centrifuged (200 x g for 5 min). […] The cells were then washed twice with the Ca^2+ buffer solution and transferred to a chamber on the stage of a Nikon eclipse TE300 microscope. […] A calibration curve was set up using buffer containing Fura-2-AM-ester and determinant concentrations of free Ca^2+. This curve was then used to convert the data obtained from the F340/F380 ratio to [Ca^2+]¡ (nM).

Data set [3] can be described thus: Thermodynamic solubility in PBS. Format: physicochemical. To be noted: phosphate buffer pH 7.4, room temperature, stirring 36h, HPLC. As to the method:
The standard solution was prepared by dissolving 1.4 mg of V405 in 10 mL of acetonitrile. A saturated solution of V405 was prepared by stirring 10 mL of phosphate buffer pH 7.4 in the presence of 10 mg of compound. The stirring was conducted at room temperature for 36h. The supernatant was filtered through a Millipore […] filter and 10 µL were used as sample for the HPLC determination. (Eluents: A = Water with 0.1% TFA, B = Acetonitrile + 0.1% TFA, Gradient: 0-100% B in 25 min, Column: SYMMETRY 300 C18 5 µM; 4,6 X 150 MM, […]). The solubility was determined by the following relationship: C'= percent area' C/percent area where C= concentration of standard solution (mg/ml), percent area': area of the peak of standard solution, percent area: area of the peak of saturated solution, C'= concentration of the saturated solution. The solubility was then expressed as […].

Data set [4] is described as follows: Body temperature measurements. The data set is classed as in vivo, rat. The following applies: 30 µmol/kg orally; for body temperature change: monitored for more than 3 hours. As to the method: Rats were placed in individual cages at room temperature (22-25°C). Rectal temperatures were recorded from awake animals by repeated insertion of a lubricated rectal thermocouple probe (model-8402-00, Cole-Palmer Instrument Company) prior to and following orally administration of V405 at 30 µmil/kg.

In data set [5] the test system is six of the major human liver cytochromes P450 (CYP) enzymes. Nature of the data set: Cytochrome P450 inhibition, whole panel (qualitative statement). The data set is classed as in vitro ADME. To be noted: panel of six CYPs, each concentration tested (0.1-10 µM). The procedure: (§1) A microtiter plate-based, direct, fluorometric assay was performed to analyze V405 inhibition potential of activities catalyzed by six of the major human liver cytochromes P450 (CYP) enzymes: CYP1A2, CYP2C9, CYP2C19, CYP2D6, CYP2E1 and CYP3A4. The six cytochrome P450 subtypes inhibition was tested from 0.1 µM to10 µM.
(§2) Four dilution points were evaluated (10 µM, 2.15 µM, 0.46 µM and 0.1 µM). A lid was placed on the plate and plate was placed at 37°C in a plate incubator for at least 10 minutes (to pre-warm the buffer and the plate). The reaction started when 0.1 mL enzyme/substrate solution mix was added to test wells. The plate was mixed and the reaction was continued incubating the lid-covered plate at 37°C for the desired time.
(§3) A stop solution was then added to all wells. and an enzyme/substrate mix was dispensed to the inverted blank wells (negative controls).
(§4) >The IC50 was calculated with a typical logistic curve fitting : % Inib = (Min-Max)/(1 + ((Conc)/(IC50)())^p) + Max [formula]

In data set [6] the target is CYP2C9 (Homo sapiens, UniProt P11712). Nature of the data set: Fluorometric cytochrome P450 inhibition assay. Format: in vitro ADME. The following applies: tested from 0.1 µM to 10 µM, 37°C, read-out: Cytochrome P450 subtypes µM inhibition (estimated IC50) CYP2C9. As to the method: as §1, §2, §3, §4
Data set [7] deals with T3, CYP1A2 (Homo sapiens, UniProt P05177).
T3 sequence (P05177 1-516): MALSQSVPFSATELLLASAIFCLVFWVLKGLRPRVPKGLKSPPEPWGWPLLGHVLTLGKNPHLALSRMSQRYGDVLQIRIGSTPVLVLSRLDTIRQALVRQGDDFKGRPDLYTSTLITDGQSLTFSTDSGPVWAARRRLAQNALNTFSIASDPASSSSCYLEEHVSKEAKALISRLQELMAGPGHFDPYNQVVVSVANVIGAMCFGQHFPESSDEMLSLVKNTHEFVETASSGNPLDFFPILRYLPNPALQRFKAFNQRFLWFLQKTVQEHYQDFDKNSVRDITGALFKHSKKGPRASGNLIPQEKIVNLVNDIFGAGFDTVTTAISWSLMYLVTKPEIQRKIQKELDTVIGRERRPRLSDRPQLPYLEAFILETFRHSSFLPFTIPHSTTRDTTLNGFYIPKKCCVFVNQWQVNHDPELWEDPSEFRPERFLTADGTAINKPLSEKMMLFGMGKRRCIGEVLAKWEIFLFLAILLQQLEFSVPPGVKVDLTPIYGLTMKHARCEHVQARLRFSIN
Nature of the data set: Fluorometric cytochrome P450 inhibition assay. Format: in vitro ADME. The following applies: tested from 0.1 µM to 10 µM, 37°C, read-out: Cytochrome P450 subtypes µM inhibition (estimated IC50) CYP1A2. The procedure: as §1, §2, §3, §4

The target of data set [8] is CYP2E1 (Homo sapiens, UniProt P05181). Nature of the data set: Fluorometric cytochrome P450 inhibition assay. Format: in vitro ADME. The following applies: tested from 0.1 µM to 10 µM, 37°C, read-out: Cytochrome P450 subtypes µM inhibition (estimated IC50) CYP2E1. As to the method:
as §1, §2, §3, §4

Data set [9] has as its target CYP2C19 (Homo sapiens, UniProt P33261). Nature of the data set: Fluorometric cytochrome P450 inhibition assay. Format: in vitro ADME. The following applies: tested from 0.1 µM to 10 µM, 37°C, read-out: Cytochrome P450 subtypes µM inhibition (estimated IC50) CYP2C19. The procedure:
as §1, §2, §3, §4

Data set [10] deals with CYP2D6 (Homo sapiens, UniProt P10635). Nature of the data set: Fluorometric cytochrome P450 inhibition assay. Format: in vitro ADME. To be noted: tested from 0.1 µM to 10 µM, 37°C, read-out: Cytochrome P450 subtypes µM inhibition (estimated IC50) CYP2D6. The procedure: as §1, §2, §3, §4
Data set [11] has as its target CYP3A4 (Homo sapiens, UniProt P08684). Nature of the data set: Fluorometric cytochrome P450 inhibition assay. Format: in vitro ADME. The following applies: tested from 0.1 µM to 10 µM, 37°C, read-out: Cytochrome P450 subtypes µM inhibition (estimated IC50) CYP3A4. As to the method:
as §1, §2, §3, §4

Data set [12] can be described thus: Capsaicin-induced secondary allodynia. The following applies: 30 µmol/kg orally 2 hours prior to capsaicin (5 nmols/50 µl/paw); 30 min after capsaicin challenge. Format: in vivo, rat. As to the method: Capsaicin (5 nmols/50 µl/paw) was injected in the plantar surface of the glabrous skin of the right paw of rats anesthetized with diethyl ether (Chaplan et al., 1994). Compound V405 was orally administrated (30 µmol/kg) 2 hours prior to capsaicin injection. Tactile allodynia was evaluated 30 min after capsaicin challenge.

Where [13] appears, read: 0.1 µM capsaicin; mean and 95% fiducial limits; read-out: IC50 of inhibition of capsaicin-evoked [Ca2+]i mobilization.

T2 sequence (O35433 whole entry): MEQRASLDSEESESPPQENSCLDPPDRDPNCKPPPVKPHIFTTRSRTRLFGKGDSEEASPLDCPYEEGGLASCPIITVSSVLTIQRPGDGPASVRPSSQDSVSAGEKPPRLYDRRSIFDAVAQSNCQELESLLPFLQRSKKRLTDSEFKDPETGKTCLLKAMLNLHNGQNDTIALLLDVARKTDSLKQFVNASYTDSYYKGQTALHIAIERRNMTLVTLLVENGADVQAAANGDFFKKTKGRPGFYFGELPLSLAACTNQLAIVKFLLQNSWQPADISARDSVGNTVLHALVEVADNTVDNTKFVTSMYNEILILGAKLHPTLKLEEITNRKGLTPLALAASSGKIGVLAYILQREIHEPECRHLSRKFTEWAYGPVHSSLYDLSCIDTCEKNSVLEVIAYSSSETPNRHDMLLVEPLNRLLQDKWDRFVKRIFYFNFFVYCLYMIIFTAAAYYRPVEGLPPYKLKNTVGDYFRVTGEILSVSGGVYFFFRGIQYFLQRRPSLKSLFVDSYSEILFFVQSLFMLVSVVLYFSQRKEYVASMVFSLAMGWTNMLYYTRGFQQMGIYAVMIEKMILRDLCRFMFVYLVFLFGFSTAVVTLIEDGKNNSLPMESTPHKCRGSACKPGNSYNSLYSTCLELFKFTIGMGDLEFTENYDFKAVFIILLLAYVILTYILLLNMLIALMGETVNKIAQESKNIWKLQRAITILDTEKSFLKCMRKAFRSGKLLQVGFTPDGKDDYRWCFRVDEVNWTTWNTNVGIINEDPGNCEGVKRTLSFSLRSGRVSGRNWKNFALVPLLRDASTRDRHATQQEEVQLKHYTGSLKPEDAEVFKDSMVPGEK
T1 sequence (O35433 whole entry): as above
CYP2C9, sequence (P11712 whole entry): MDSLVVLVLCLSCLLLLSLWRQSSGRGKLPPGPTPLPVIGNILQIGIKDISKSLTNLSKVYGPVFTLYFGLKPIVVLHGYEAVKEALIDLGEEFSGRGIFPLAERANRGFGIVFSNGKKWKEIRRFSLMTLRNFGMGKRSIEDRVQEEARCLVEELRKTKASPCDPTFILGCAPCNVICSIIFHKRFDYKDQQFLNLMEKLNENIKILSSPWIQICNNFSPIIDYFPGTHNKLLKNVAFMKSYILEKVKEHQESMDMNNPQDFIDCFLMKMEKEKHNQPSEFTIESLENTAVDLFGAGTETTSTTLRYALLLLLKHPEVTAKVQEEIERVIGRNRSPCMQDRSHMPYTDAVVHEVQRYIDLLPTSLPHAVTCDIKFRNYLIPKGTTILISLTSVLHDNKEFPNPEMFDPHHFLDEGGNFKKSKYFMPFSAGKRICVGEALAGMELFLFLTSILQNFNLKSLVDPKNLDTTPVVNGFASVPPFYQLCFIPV
CYP2C19, sequence (P33261 whole entry): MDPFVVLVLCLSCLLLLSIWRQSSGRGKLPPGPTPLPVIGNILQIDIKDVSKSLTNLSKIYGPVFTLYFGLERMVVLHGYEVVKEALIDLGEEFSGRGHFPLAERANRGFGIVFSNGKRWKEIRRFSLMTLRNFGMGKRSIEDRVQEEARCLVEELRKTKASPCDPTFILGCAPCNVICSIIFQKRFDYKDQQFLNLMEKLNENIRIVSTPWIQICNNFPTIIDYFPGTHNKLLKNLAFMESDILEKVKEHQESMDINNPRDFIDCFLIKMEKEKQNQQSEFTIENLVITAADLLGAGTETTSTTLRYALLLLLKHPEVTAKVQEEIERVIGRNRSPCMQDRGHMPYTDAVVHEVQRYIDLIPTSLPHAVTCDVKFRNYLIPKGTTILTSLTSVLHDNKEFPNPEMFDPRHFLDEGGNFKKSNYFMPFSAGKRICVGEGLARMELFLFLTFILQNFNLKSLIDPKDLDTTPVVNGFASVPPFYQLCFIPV
CYP2D6, sequence (P10635 whole entry): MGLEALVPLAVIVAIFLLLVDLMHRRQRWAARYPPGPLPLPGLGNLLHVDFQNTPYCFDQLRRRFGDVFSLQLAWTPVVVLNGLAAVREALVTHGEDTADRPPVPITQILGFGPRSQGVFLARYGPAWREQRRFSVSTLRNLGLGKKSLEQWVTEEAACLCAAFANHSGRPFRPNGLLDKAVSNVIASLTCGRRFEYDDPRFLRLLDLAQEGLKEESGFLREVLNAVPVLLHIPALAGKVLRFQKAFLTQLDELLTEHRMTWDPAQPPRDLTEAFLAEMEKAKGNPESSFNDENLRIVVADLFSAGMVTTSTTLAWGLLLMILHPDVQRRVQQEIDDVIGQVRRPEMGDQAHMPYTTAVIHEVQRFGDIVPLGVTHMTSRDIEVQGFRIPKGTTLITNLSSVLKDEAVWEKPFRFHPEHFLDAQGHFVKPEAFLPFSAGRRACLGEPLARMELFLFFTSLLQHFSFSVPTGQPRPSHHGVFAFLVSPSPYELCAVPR
CYP2E1, sequence (P05181 whole entry): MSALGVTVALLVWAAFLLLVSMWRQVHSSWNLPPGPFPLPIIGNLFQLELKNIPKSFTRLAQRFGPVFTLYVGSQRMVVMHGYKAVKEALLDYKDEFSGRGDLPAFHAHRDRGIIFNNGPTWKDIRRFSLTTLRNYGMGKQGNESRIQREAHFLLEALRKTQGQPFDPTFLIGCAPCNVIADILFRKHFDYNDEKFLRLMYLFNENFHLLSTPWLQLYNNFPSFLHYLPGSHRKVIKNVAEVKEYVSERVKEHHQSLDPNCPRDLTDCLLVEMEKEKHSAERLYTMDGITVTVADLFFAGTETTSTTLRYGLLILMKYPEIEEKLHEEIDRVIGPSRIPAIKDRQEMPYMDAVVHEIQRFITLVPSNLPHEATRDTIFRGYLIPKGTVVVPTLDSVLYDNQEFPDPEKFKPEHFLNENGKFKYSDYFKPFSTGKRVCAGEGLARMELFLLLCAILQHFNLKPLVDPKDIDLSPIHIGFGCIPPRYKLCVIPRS
CYP3A4, sequence (P08684 whole entry): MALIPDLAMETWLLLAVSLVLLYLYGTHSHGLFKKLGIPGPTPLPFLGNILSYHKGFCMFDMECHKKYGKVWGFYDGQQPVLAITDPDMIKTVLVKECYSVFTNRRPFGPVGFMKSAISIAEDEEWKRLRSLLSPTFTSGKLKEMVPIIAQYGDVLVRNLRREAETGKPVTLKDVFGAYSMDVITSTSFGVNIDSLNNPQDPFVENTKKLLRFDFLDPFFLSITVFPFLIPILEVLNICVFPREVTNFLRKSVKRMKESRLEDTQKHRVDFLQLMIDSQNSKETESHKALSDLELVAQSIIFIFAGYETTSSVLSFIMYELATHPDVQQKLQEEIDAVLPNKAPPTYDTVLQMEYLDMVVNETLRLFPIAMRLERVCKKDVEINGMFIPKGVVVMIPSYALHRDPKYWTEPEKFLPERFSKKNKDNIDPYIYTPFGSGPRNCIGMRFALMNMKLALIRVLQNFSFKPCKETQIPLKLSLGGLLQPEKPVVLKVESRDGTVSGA

For `C=C(C)[C@]12C[C@@H](C)[C@@]34O[C@](Cc5ccccc5)(O[C@@H]1[C@@H]3C=C(COC(=O)Cc1ccc(O)c(OC)c1)C[C@]1(O)C(=O)C(C)=C[C@@H]41)O2` [[^3H]-RTX, [^3H]-Resiniferatoxin], in data set [1] (saturation curve, [3H]-RTX 0.003-3 nM, 37°C, 60 min, mean (95% limits)), the Kd turned out to be 0.21 nM.
Turning to `Oc1cc2c(cc1O)CN(C(=S)NCCc1ccc(Cl)cc1)CCC2` [capsazepine], in data set [2] (setting [13]), the IC50 was determined as 948 nM.
Take `O=C(Nc1ccc(Cl)cc1)c1ccc(-c2cccc3cnccc23)nc1` [non-oxidized homologous, N-(4-chlorophenyl)-6-(isoquinolin-5-yl)pyridine-3-carboxamide, reference compound]: the Thermodynamic solubility entry in data set [3] is on record as “not soluble”. The “temperature increase (mean value) with respect to control animals” value in data set [4] (during the whole experiment (more than 3 hours)) is “+0.5 °C”.
As for `O=C(Nc1ccc(Cl)cc1)c1ccc(-c2cccc3cnccc23)[n+]([O-])c1` [Example V405], the “interaction with the evaluated cytochromes” value in [5] is recorded as “does not interact”. Moreover, the IC50 in data set [6], in [7], in data set [8], in [9], in data set [10] and in data set [11] was more than 10 µM throughout. For the same molecule, the IC50 in [2] (read-out: IC50 of inhibition of capsaicin-evoked [Ca2+]i mobilization; 0.1 µM capsaicin; mean and 95% fiducial limits) came to 15 nM. In addition, the “preventive effect against the pro-allodinic effect of capsaicin” value in data set [12] is 55%. The affinity in data set [1] corresponds to a Ki of 203 nM. Also, the solubility (thermodynamic) at 36 h in [3] (2160 min) came to 106.4 µM (≈ 40 µg/mL); in data set [3] (phosphate buffer, pH 7.4, aqueous buffer) it was 106 µM (≈ 39.8 µg/mL). Moreover, the body temperature change result is on record as “No significant temperature change” in [4] and “does not cause thermal increase” in data set [4] (listed as compound 1).
As for `COc1cccc(NC(=O)/C=C/c2ccc(Cl)cc2)c1` [SB-366791, (E)-3-(4-chlorophenyl)-N-(3-methoxyphenyl)acrylamide], the inhibitory constant (Ki) in data set [1] (competition with [3H]RTX (0.4 nM), 37°C, 60 min, read-out: Ki) turned out to be 36 nM. The concentration for half-maximal inhibition (IC50) in data set [2] (setting [13]) turned out to be 8.7 nM.

Source of the values: patent EP2048133A1 (Pharmeste S.r.l., priority 2007, dated 2009).
